Read-outs that look alike come from different tables or passages of the source.
Tests used:
H-1650 (Lung) = assay: In vitro combination study for selected compounds, additional cell lines; format: cell-based; conditions: drug combined with Compound 1
Experimental: (§1) In vitro anti-proliferative effects of selected compounds were tested in additional cell lines, including ovarian cancer (SKOV3) and pancreatic cancer (MIA-PACA-2) cell lines.

CALU6 (Lung) = assay: as above; format: cell-based; conditions: drug combined with Compound 1
Experimental: as §1

[1] = test system: ovarian cancer (SKOV3) cell line; assay: as above; format: cell-based; conditions: drug combined with Compound 1
Experimental: as §1

SW620 cancer cells = assay: In vitro combination study with Compound 1, Cell Titer-Glo (ATP) cell viability, 72 h; format: cell-based;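 also: Ten-by-ten dose matrices of both drugs in 384-well plates, luminescent ATP read-out, synergy evaluated against single-agent and DMSO vehicle controls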
Experimental: (§2) Each combination pair was evaluated in an individual 384-well plate which contained variable doses of both compounds as single agents, as well as two, ten-by-ten matrices (in duplicate) that contained mixtures of the two test compounds. In brief, compounds were added to the cell test plates 16 hours after cell plating and then assessed for viability 72 hours later. Continuous cultures of tumor cells were maintained under standard cell culturing conditions (i.e. in a humidified chamber set at 37° C., containing atmosphere 5% carbon dioxide). […] Seventy-two hours after compound addition, ATP levels were measured to assess cell viability. Plating densities were chosen to ensure optimal linear growth over the 72 hour period.
(§3) Compound dilution and compound delivery to the assay plates were done on HighRes Robotic System (HighRes Biosolutions, Woburn, Mass., USA) with Echo™ Liquid Handler (Labcyte, Sunnyvale, Calif., USA). […] Next, these were used for compound transfer into cell assay plates. All wells were back-filled to give a constant percentage of DMSO.
(§4) The final DMSO concentration was held constant in all wells across the plate and was maintained at less than 0.5%. […] Cells treated with vehicle (DMSO) in two rows, or single compound serial dilutions in one plate columns/row served as the untreated control and single compound controls, respectively.
(§5) Compound activity in A549, COLO205, H460, HCT116, SW48, SW620 cancer cell lines was assessed using Cell Titer-Glo® (Promega [Madison, Wis., USA]). After 72 hours incubation, the plates were treated as per package insert protocol for the Promega Luminescence ATP Detection Systems. Briefly, 25 μL of cell lysis/substrate solution (provided in kit form) was added to each well and the plate was incubated at room temperature for 10 minutes. Luminescence was measured using a PHERAstar multi-label counter (BMG Labtech [Ortenberg, Germany]) or LEADseeker (GE Healthcare Life Sciences [Piscataway, N.J., USA]).
(§6) Numerical luminescence values were analyzed to generate EC50 curves and evaluate synergy. Raw Data reader files were uploaded along with automation workfiles that defined the plate and well contents. Percent activities were calculated for each well versus plate controls.
(§7) Each plate representing a single drug combination was analyzed separately. First, the viability measurements were normalized by scaling the data so that the median of the negative controls was 0 and the median of the positive controls was 100.
(§8) For the combination analysis, a response surface model was used to describe the relationship between the normalized viability and the drug concentrations. The data were fit to the model by minimizing the residual sum of squares. Based on the fitted response surface, plots of constant viability, called isobolograms, were produced.
(§9) The Combination Index and Nonlinear Blending were used as measures of drug synergy. To calculate Combination Index the 50% isobologram (which is the dose contour that has 50% viability) was used. […] A standard procedure was created to produce a call in order to characterize the viability effects for each combination (synergy, additivity, subadditivity, or antagonism). If the Combination Index existed then these measures were used to make the call.

SW48 cancer cells = assay: as above; format: cell-based
Experimental: as §2
Compound dilution and compound delivery to the assay plates were done on HighRes Robotic System (HighRes Biosolutions, Woburn, Mass., USA) with Echo™ Liquid Handler (Labcyte, Sunnyvale, Calif., USA). First, 384-well low dead volume (LDV) plates containing DMSO (Appendix B) and 10 mM compound stock solutions were used to create the required intermediate compound dilution plates. Next, these were used for compound transfer into cell assay plates. All wells were back-filled to give a constant percentage of DMSO.
as §4, §5, §6, §7, §8, §9

H460 cancer cells = assay: as above; format: cell-based;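 also: Ten-by-ten dose matrices of both drugs alongside single-agent dilutions, luminescence read 72 hours after compound addition, percent activity per well versus vehicle (DMSO) plate controls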
HCT116 cancer cells = assay: as above; format: cell-based;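 also: combination call from 10×10 dose matrices in duplicate, graded by synergy, with percent activity per well relative to DMSO vehicle controls on the same plate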
Experimental: as §2, §3, §4, §5, §6, §7, §8, §9

COLO205 cancer cells = assay: as above; format: cell-based, human;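 also: Ten-by-ten dose matrices of both agents in duplicate plus single-agent dilutions, luminescent ATP read-out, percent activity per well relative to DMSO vehicle wells, synergy call from these matrices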
Experimental: as §2, §3, §4, §5, §6, §7, §8, §9

[2] = DNA damaging agent combined with Compound 1, 72 h

Row | Compound | In vitro combination effect with Compound 1, Lung H-1650 (H-1650 (Lung)) | In vitro combination effect with Compound 1, Lung CALU6 (CALU6 (Lung)) | In vitro combination effect with Compound 1, Ovary SKOV3 [1] | Call, anti-proliferative effect of combination with Compound 1, SW620 (SW620 cancer cells; [2]) | Call, anti-proliferative effect of combination with Compound 1, SW48 (SW48 cancer cells; [2]) | Call, anti-proliferative effect of combination with Compound 1, H460 (H460 cancer cells; [2]) | Call, anti-proliferative effect of combination with Compound 1, HCT116 (HCT116 cancer cells; [2]) | Call, anti-proliferative effect of combination with Compound 1, SW620 (SW620 cancer cells) | Call, anti-proliferative effect of combination with Compound 1, COLO205 (COLO205 cancer cells) | Call, anti-proliferative effect of combination with Compound 1, SW48 (SW48 cancer cells) | Call, anti-proliferative effect of combination with Compound 1, H460 (H460 cancer cells) | Call, anti-proliferative effect of combination with Compound 1, HCT116 (HCT116 cancer cells)
1 | N.N.[Cl][Pt][Cl] [Cisplatin] | Additive | Additive | Additive | Synergy (0 to 0.7) | Additivity (0.7 to 1.3) | Synergy (0 to 0.7) | Synergy (0 to 0.7) |  |  |  |  | 
2 | O=C1[O][Pt]2([NH][C@@H]3CCCC[C@H]3[NH]2)[O]C1=O [Oxaliplatin] | Additive | Additive | Additive |  |  |  |  | Synergy (key: Inconclusive: Any; Additivity: 0.7 to 1.3; Synergy: 0 to 0.7; Subadditivity: 1.3 to 2; Antagonism: >2) | Synergy (key: Inconclusive: Any; Additivity: 0.7 to 1.3; Synergy: 0 to 0.7; Subadditivity: 1.3 to 2; Antagonism: >2) | Additivity (key: Inconclusive: Any; Additivity: 0.7 to 1.3; Synergy: 0 to 0.7; Subadditivity: 1.3 to 2; Antagonism: >2) | Additivity (key: Inconclusive: Any; Additivity: 0.7 to 1.3; Synergy: 0 to 0.7; Subadditivity: 1.3 to 2; Antagonism: >2) | Additivity (key: Inconclusive: Any; Additivity: 0.7 to 1.3; Synergy: 0 to 0.7; Subadditivity: 1.3 to 2; Antagonism: >2)

Source: patent publication US20220323443A1, “COMBINATION THERAPY FOR CANCER TREATMENT” (TAKEDA PHARMACEUTICAL COMPANY LIMITED, priority 2019, published 2022)
